Measured values: PubChem BioAssay (NCI)
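Where inhibition never reached the appropriate level, the endpoint shown equals the highest concentration tested. Otherwise, values were interpolated linearly from a five-concentration, 48-hour dose response in 96-well plates. Abbreviation: GI50, concentration required for 50% inhibition of growth. TGI: total growth inhibition.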

Assays:
Assay in all cases: DTP human tumour cell line panel, 48 h
[1] = test system: DMS 114 small cell lung
[2] = test system: DMS 273 small cell lung
[3] = test system: LXFL 529 NSCLC
[4] = test system: SNB-78 CNS
[5] = test system: XF 498 CNS
[6] = test system: HOP-18 NSCLC
[7] = test system: KM20L2 colon
[8] = test system: MDA-N
[9] = test system: RXF-631 renal

Row | SMILES | TGI [1] | TGI [2] | TGI [3] | TGI [4] | TGI [5] | TGI [6] | TGI [7] | TGI [8] | TGI [9] | GI50 [8] | GI50 [2] | GI50 [4] | GI50 [5]
1 | CC(=O)CCCCO | > 100 µM | > 100 µM | > 100 µM | > 100 µM | > 100 µM | – | – | – | – | – | – | – | –
2 | C/C(=N\N=C(/[Se])N1CC2CCC(CC2)C1)c1ccccn1 | < 0.0229 µM | 1.79 µM | 0.0256 µM | 2.88 µM | 0.0981 µM | 1.98 µM | 0.682 µM | 2.6 µM | 3.88 µM | – | – | – | –
3 | Cc1cc(NS(=O)(=O)c2ccc(NC(=O)c3cccc4c(Nc5ccc(S(=O)(=O)N=C(N)N)cc5)c5ccccc5nc34)cc2)no1 | – | > 100 µM | > 100 µM | > 100 µM | – | – | > 100 µM | – | > 100 µM | – | – | – | –
4 | COc1cc(/C=C2\CCC(CN(C)C)C2=O)ccc1OC(=O)c1ccccc1 (stereo unspecified) | 40.9 µM | 27.4 µM | 9 µM | 39.9 µM | 34.6 µM | 30.9 µM | 30.3 µM | 29.6 µM | 23.6 µM | – | – | – | –
5 | NC(N)=NNC(=O)CCCCCCCC(=O)NN=C(N)N | > 100 µM | > 100 µM | > 100 µM | > 100 µM | – | – | > 100 µM | – | > 100 µM | – | – | – | –
6 | Cc1ccc2c(c1)NC(=O)CC(c1ccccc1)=N2 | – | – | – | – | – | – | – | 60.7 µM | – | – | – | – | –
7 | Nc1c(C(=O)Nc2ccccc2)[n+]([O-])c2ccccc2[n+]1[O-] | 26.8 µM | 46.9 µM | 28.1 µM | 40.4 µM | 32.6 µM | 26.3 µM | 34.7 µM | – | – | – | – | – | –
8 | COc1ccc(/C=C\c2cc(OC)c(OC)c(OC)c2)cc1OC(=O)CCC(=O)O | – | – | – | – | – | – | – | > 100 µM | – | – | – | – | –
9 | c1ccc2c(c1)[nH]c1cnc3c4cccnc4[nH]c3c12 | 37.4 µM | – | 35.5 µM | 46.6 µM | – | 36.7 µM | – | – | – | – | – | – | –
10 | COc1cc2c(cc1O)CC13CCC(=O)N1CCc1cc(OC)c(O)c-2c13 (stereo unspecified) | > 68.1 µM | – | > 68.1 µM | > 68.1 µM | – | > 68.1 µM | > 68.1 µM | – | > 68.1 µM | – | – | – | –
11 | CC(=O)OC1(C)C(=O)OC1(C)C(C)=O (stereo unspecified) | > 100 µM | > 100 µM | > 100 µM | > 100 µM | – | > 100 µM | > 100 µM | – | > 100 µM | – | – | – | –
12 | COc1ccc(/C=C/C(=O)Oc2cc(O)cc(O)c2)cc1 | – | – | – | – | – | – | – | > 100 µM | – | – | – | – | –
13 | CCN(c1ccc(Br)cc1)c1c(Br)c(=O)nc2ccccn12 | > 100 µM | > 100 µM | > 100 µM | > 100 µM | > 100 µM | – | > 100 µM | – | > 100 µM | – | – | – | –
14 | CCCCOC(=O)NC(=O)c1cn(CCSCCOC(=O)NCCCCCCNC(=O)OCCSCCn2cc(C(=O)NC(=O)OCCCC)c(=O)[nH]c2=O)c(=O)[nH]c1=O | > 100 µM | > 100 µM | > 100 µM | > 100 µM | – | > 100 µM | > 100 µM | – | > 100 µM | – | – | – | –
15 | CC(C)(C)C(=O)ON1N=NC2C3CC(OCc4ccccc4)(OCc4ccccc4)C(O3)C21 (stereo unspecified) | – | 51.2 µM | 25.8 µM | > 100 µM | 33.5 µM | 94.2 µM | 77.5 µM | – | 82.1 µM | – | – | – | –
16 | C1OC1CO[C@@H]1CO[C@H]2[C@@H]1OC[C@H]2OCC1CO1 (stereo partly specified) | > 100 µM | > 100 µM | – | > 100 µM | > 100 µM | > 100 µM | > 100 µM | – | – | – | – | – | –
17 | NC(=O)C(c1ccccc1)N1CCOCC1 (stereo unspecified) | > 100 µM | > 100 µM | > 100 µM | > 100 µM | – | > 100 µM | > 100 µM | – | – | – | – | – | –

Row | SMILES | TGI [1] | TGI [2] | TGI [3] | TGI [4] | TGI [5] | TGI [6] | TGI [7] | TGI [8] | TGI [9] | GI50 [8] | GI50 [2] | GI50 [4] | GI50 [5]
18 | c1ccc(-c2nc(-c3ccccc3)c(-c3ccccc3)[nH]2)cc1 | – | – | – | – | – | – | – | > 100 µM | – | – | – | – | –
19 | O=C1CN(C(=O)c2ccccc2)Cc2[nH]c3ccccc3c21 | > 100 µM | > 100 µM | > 100 µM | > 100 µM | > 100 µM | > 100 µM | > 100 µM | – | > 100 µM | – | – | – | –
20 | COc1cccc(/C=C/c2cnc3ccccc3n2)c1OC | – | – | – | – | – | – | – | > 100 µM | – | – | – | – | –
21 | Cc1ccc(SC2=CC(=O)c3nc4ccccc4c4ccnc2c34)cc1 | – | – | – | – | – | – | – | > 75 µM | – | 28.8 µM | – | – | –
22 | CCSC1=C(C)N(C=NC(C)(C)C)CC1 | > 100 µM | > 100 µM | > 100 µM | > 100 µM | > 100 µM | > 100 µM | > 100 µM | – | > 100 µM | – | – | – | –
23 | O=C1C(=O)N(c2ccc(Cl)cc2Cl)C(=O)C(=O)C1c1nc2ccccc2o1 | – | > 100 µM | > 100 µM | > 100 µM | > 100 µM | > 100 µM | > 100 µM | – | > 100 µM | – | – | – | –
24 | CC(=O)OC1CC2(O)C3CCC4CC(O)CCC4(C)C3CCC2(C)C1C1=CC(=O)OC1 (stereo unspecified) | – | – | – | – | – | – | – | 0.317 µM | – | – | – | – | –
25 | COc1cc2c[n+](C)c3c4ccccc4ccc3c2cc1OC (tested in a mixture with another compound) | 14.6 µM | 15.7 µM | 16 µM | – | 17.7 µM | 76.8 µM | 37.9 µM | 20.5 µM | > 66.1 µM | – | – | – | –
26 | O=C(O)c1cc(N=Cc2ccccc2O)cc(C(=O)O)c1 | – | – | – | – | – | – | – | > 100 µM | – | – | – | – | –
27 | O=C1c2c(n(Cc3ccccc3)c(=O)n2Cc2ccccc2)C(=O)N1Cc1ccccc1 | > 100 µM | > 100 µM | > 100 µM | > 100 µM | 98.5 µM | > 100 µM | > 100 µM | – | > 100 µM | – | – | – | –
28 | CN1CC(C(=O)C2C(=O)c3ccccc3C2=O)C(=O)C(=O)C(C(=O)C2C(=O)c3ccccc3C2=O)C1 (stereo unspecified) | > 100 µM | > 100 µM | – | – | > 100 µM | – | – | – | > 100 µM | – | – | – | –
29 | CC#CC1/C(=C\C(=O)OC)CCCC1O (stereo unspecified) | > 100 µM | > 100 µM | – | > 100 µM | > 100 µM | – | – | – | – | – | – | – | –
30 | CCN(CCCl)CCCNc1c2ccccc2nc2ccc(OC)cc12 | 1.76 µM | – | 1.7 µM | – | – | – | 2.2 µM | – | – | – | 177 µM | 585 µM | 381 µM
31 | O=C(CC(=O)N1N=C(N2c3ccccc3Sc3ccccc32)CC1c1ccccc1)Nc1ccc(Cl)cc1 (stereo unspecified) | > 100 µM | > 100 µM | > 100 µM | > 100 µM | > 100 µM | > 100 µM | > 100 µM | – | – | – | – | – | –
32 | CCOC(=O)C1SC(=Nc2ccc(Cl)c(Cl)c2)N=C1C (stereo unspecified) | – | > 100 µM | > 100 µM | – | > 100 µM | > 100 µM | 78.8 µM | – | > 100 µM | – | – | – | –
33 | CC1=CCC23C(C1)OC(Br)(C=CC2(C)O)C3(C)C (stereo unspecified) | > 100 µM | > 100 µM | – | > 100 µM | > 100 µM | > 100 µM | – | – | – | – | – | – | –
